In patent US7288573B2, “Method of repelling insects” (priority 2001, dated 2007):
Values joined by “and” are separate entries in the source; they are usually repeats but may differ in a detail not shown here. Identical values can stand only once. “Also recorded” adds a separate entry of the source.

Assays:
Culex spp. = test: Mosquito repellency of 2-undecanone and 2-tridecanone, treated arm in cage (Example 6); type: in vivo; conditions: for No. landings: single replicates; for observed repellent / residual activity (words): observed up to 24 hours post-treatment
Text: Cages. The same two mosquitoes cages described in Example 5 were used for this example. The cages were constructed using wood framing and fine mesh wire screen. The dimensions of each cage were 59 cm high×55 cm wide by 59 cm deep. A hinged access door was installed at the front of each chamber for insertion of the water-filled containers filled with mosquito pupae. Also present at the front of each chamber was a 9 cm diameter plastic tube (i.d.) for insertion of the arm of the investigator. The arm insertion tube was sealed with a rubber stopper when not in use.
Mosquitoes and Mosquito Rearing. Mosquitoes (Culex spp.) were obtained (as pupae and larvae) from Carolina Biological Supply Co., Burlington, N.C., USA in two successive shipments, so as to provide a continuing long term supply of fresh insects. Following their arrival, the mosquitoes were divided into approximately equal numbers in multiple water-filled containers and placed in the two cages described above. The larval and pupal cultures were fed with insect rearing compound. In addition, the water was changed regularly by filtration to minimize contamination and prevent overcrowding. Continuous culturing made it possible to increase the mosquito numbers to more than 100 insects per cage.
Test Compounds and Testing Schedule. Testing was done with two compounds, 2-undecanone, and 2-tridecanone, for repellent activity by treating one arm of the investigator with approximately 1 ml of the test solution. Following several minutes for solvent evaporation, the treated arm was inserted through the insertion tube for 5 minutes. The other arm was treated with isoprbpanol (control) or a different concentration of the compound, and inserted into the insertion tube of the adjacent chamber. Next, the behavior of the mosquitoes in response to the presence of the investigator's arms was noted. Mosquito behavior was recorded as 1) landing or attempting to land on the investigator's arm, or coming to rest on the wire screen immediately adjacent to the investigator's arm or hand, versus 2) dispersal away from the treated arm towards the opposite ends of the cage. The approximate number of mosquitoes present at the beginning of the observations was noted. For treatments with 2-undecanone, observations were made initially to confirm 100% repellent activity of the compound immediately after treatment but observations were not recorded. Recording of efficacy was delayed until 6 hours after treatment, and then repeated at 12 and 24 hours post-treatment. For treatment with 2-tridecanone, the observations commenced immediately after solvent drying; then, the observations were repeated (without re-treatment of the investigator's hand and arm) after 6 hours, 12 hours and 24 hours. Treatments were alternated between the different cages. […]
2-tridecanone was obtained as a solid. To prepare this compound for testing, it was subjected to gentle heating in a 37° C. water bath to liquefy it, and aliquots of the stock were diluted volume: volume with isopropanol to 50% concentration and 20% concentration. Sufficient pure compound was retained for direct application (undiluted).
Tests were done at concentrations of 100%, 50%, and 20% for each of the two compounds, as well as 20% DEET, and the isopropanol control.
Table 3 presents the efficacy found at the different time intervals for each of the compounds at the three different concentrations and for DEET. Efficacy was calculated according to the formula: [(no. landings/no. present in control)−(no. landings/no. present in experinental) divided by (no. landings/no. present in control)]×100.

Aedes albopictus = test: One-minute biting counts on treated forearm (Example 7); type: in vivo; conditions: 20% formulations; post-treatment time intervals
Procedure: This experiment was performed to evaluate the comparative repellency of 5% and 20% 2-undecanone in ethanol, 20% 2-tridecanone in isopropanol and Off!™ 14.25% DEET Insect Repellent aerosol against Aedes albopictus (Asian tiger mosquitoes) and Culex quinquefasciatus (southern house mosquitoes).
Three to four-day-old laboratory-reared female Ae. albopictus and Cx. quinquefasciatus were transferred by aspiration into eight cages measuring 10 inches high×10 inches wide×13 inches deep at a targeted stocking rate of 100 and 200, respectively. Four cages contained Ae. albopictus and four contained Cx. quinquefasciatus. A greater number of Cx. quinquefasciatus was used to compensate for lower biting activity anticipated for this species. The actual number of females per cage was lower than the target-stocking rate because of the high number of males that were inadvertently introduced into the cages. Each cage contained a screened back wall, clear Plexiglas top, stockinette entry sleeve and solid aluminum floor and sidewalls. The mosquitoes were fed water and sugar water prior to and between tests. The tests were conducted over four days, Aug. 7-10, 2001, with four men participating as testers. All testers washed both arms with a non-fragrance soap, rinsed and swabbed with 25% ethanol prior to applying treatments. Treatments were applied to the forearm in a region extending from the wrist to a point measured at 12″ back from the tip of the index finger on both arms. The 20% 2-tridecanone was not applied as uniformly as the other repellents because an insufficient quantity was available. Latex gloves were worn over the hands and replaced before each biting count. The control consisted of a soap wash, rinse and 25% ethanol swab and was conducted by the same person throughout the study. One-minute biting counts were recorded at 0, 1, 2, 4 & 6 hours post-treatment time intervals. All treatments were randomly assigned to each tester, two treatments per tester. Cage placement was also randomized at the beginning of each day of testing. Testers were rotated each day so that by the end of the study they had occupied each cage location. Each repellent was tested two times by three testers so that mean biting counts were based on six observations. A Hobo datalogger was used to monitor temperature and humidity throughout the study.
A balanced incomplete block design following American Society for Testing and Materials standards E 939-94 was employed. Data were normalized by square root transformation and submitted to analysis of variance and mean separation procedures via SS PC. Microsoft Excel 2000 pivot tables and charting functions were used to plot mean biting counts and standard errors by species and time interval for each treatment and control. Mean biting counts were transformed to percent protection or repellency by the following formula: Control−Treatment/Control×100.

[1] = 20% concentration, 0 hours after treatment
[2] = 20% concentration, 6 hours after treatment
[3] = 20% concentration, 12 hours after treatment
[4] = 20% concentration, 24 hours after treatment
[5] = 50% concentration, 0 hours after treatment
[6] = 50% concentration, 6 hours after treatment
[7] = 50% concentration, 12 hours after treatment
[8] = 50% concentration, 24 hours after treatment
[9] = 100% concentration, 0 hours after treatment
[10] = 100% concentration, 6 hours after treatment
[11] = 100% concentration, 12 hours after treatment
[12] = 100% concentration, 24 hours after treatment

## CCCCCCCCCCCC(C)=O [2-tridecanone]
Culex spp.; 20% concentration, 0 hours
  Percent Efficacy Post-Treatment: 1.5%^
Culex spp.; [1]
  No. landings, Mean: 4.0
  Percent = [(No. landings/No. present)] × 100: 14.4%
  No. landings: 4 and 3 and 5
Culex spp.; 20% concentration, 6 hours
  Percent Efficacy Post-Treatment: 0%
Culex spp.; [2]
  No. landings, Mean: 4.7
  Percent = [(No. landings/No. present)] × 100: 14.0%
  No. landings: 3 and 4 and 7
Culex spp.; 20% concentration, 12 hours
  Percent Efficacy Post-Treatment: 22.2%
Culex spp.; [3]
  No. landings, Mean: 4.7
  Percent = [(No. landings/No. present)] × 100: 13.0%
  No. landings: 3 and 5 and 6
Culex spp.; 20% concentration, 24 hours
  Percent Efficacy Post-Treatment: 0%
Culex spp.; [4]
  No. landings, Mean: 5.7
  Percent = [(No. landings/No. present)] × 100: 14.9%
  No. landings: 5 and 6 (2×)
Culex spp.; 20% concentration
  observed repellent / residual activity (words): repellant activity was not observed
Culex spp.; 20% concentration, listed as 2-Tridecanone
  observed repellent / residual activity (words): Comments: No residual repellent activity was observed.
Culex spp.; 50% concentration, 0 hours
  Percent Efficacy Post-Treatment: 95.2%
Culex spp.; [5]
  No. landings, Mean: 0.7
  Percent = [(No. landings/No. present)] × 100: 0.7%
  No. landings: 0 and 1 (2×)
Culex spp.; 50% concentration, 0 hours after treatment, listed as 2-Tridecanone
  Percent = [(No. landings/No. present)] × 100: 2.4%
Culex spp.; 50% concentration, 6 hours
  Percent Efficacy Post-Treatment: 67.7%
Culex spp.; [6]
  No. landings, Mean: 1.3
  Percent = [(No. landings/No. present)] × 100: 4.3%
  No. landings: 3 and 0 and 1
Culex spp.; 50% concentration, 6 hours after treatment, listed as 2-Tridecanone
  Percent = [(No. landings/No. present)] × 100: 4.3%
Culex spp.; 50% concentration, 12 hours
  Percent Efficacy Post-Treatment: 0%
Culex spp.; [7]
  No. landings, Mean: 5.7
  Percent = [(No. landings/No. present)] × 100: 19.7%
  No. landings: 7 and 4 and 6
Culex spp.; 50% concentration, 24 hours
  Percent Efficacy Post-Treatment: 0%
Culex spp.; [8]
  No. landings, Mean: 5.0
  Percent = [(No. landings/No. present)] × 100: 18.7%
  No. landings: 7 and 4 (2×)
Culex spp.; 50% concentration
  observed repellent / residual activity (words): activity greatly diminished or was absent after 12 and 24 hours.
Culex spp.; 100% concentration, 0 hours
  Percent Efficacy Post-Treatment: 87.7%
Culex spp.; [9]
  No. landings, Mean: 1.3
  Percent = [(No. landings/No. present)] × 100: 1.8%
  No. landings: 0 and 1 and 3
Culex spp.; 100% concentration, 0 hours after treatment, listed as 2-Tridecanone
  Percent = [(No. landings/No. present)] × 100: 1.8%
Culex spp.; 100% concentration, 6 hours
  Percent Efficacy Post-Treatment: 18.1%
Culex spp.; [10]
  No. landings, Mean: 9.7
  Percent = [(No. landings/No. present)] × 100: 10.9%
  No. landings: 9 and 10 (2×)
Culex spp.; 100% concentration, 12 hours
  Percent Efficacy Post-Treatment: 41.9%
Culex spp.; [11]
  No. landings, Mean: 10.3
  Percent = [(No. landings/No. present)] × 100: 9.7%
  No. landings: 16 and 7 and 8
Culex spp.; 100% concentration, 24 hours
  Percent Efficacy Post-Treatment: 0%
Culex spp.; [12]
  No. landings, Mean: 15.0
  Percent = [(No. landings/No. present)] × 100: 13.3%
  No. landings: 17 and 15 and 13
Culex spp.; 100% concentration
  observed repellent / residual activity (words): Comments: The compound was highly repellent. A huge cloud of mosquitoes retreated
Culex spp.; 100%, 50% and 20% concentrations, 0 to 24 hours
  overall repellent activity, comparison of the two compounds: less effective as a repellent against mosquitoes than 2-undecanone
Aedes albopictus
  repellency: low repellency

## CCN(CC)C(=O)c1cccc(C)c1 [DEET, N,N-diethyl-meta-toluamide, reference compound]
Culex spp.; 20% concentration, 0 hours
  Percent Efficacy Post-Treatment: 91.1%
Culex spp.; [1]
  No. landings, Mean: 1.3
  Percent = [(No. landings/No. present)] × 100: 1.3%
  No. landings: 2 (2×) and 0
Culex spp.; 20% concentration, 6 hours
  Percent Efficacy Post-Treatment: 63.9%
Culex spp.; [2]
  No. landings, Mean: 5.7
  Percent = [(No. landings/No. present)] × 100: 4.8%
  No. landings: 10 and 4 and 3
Culex spp.; 20% concentration, 12 hours
  Percent Efficacy Post-Treatment: 31.7%
Culex spp.; [3]
  No. landings, Mean: 15.0
  Percent = [(No. landings/No. present)] × 100: 11.4%
  No. landings: 12 and 15 and 18
Culex spp.; 20% concentration, 24 hours
  Percent Efficacy Post-Treatment: 16.8%
Culex spp.; [4]
  No. landings, Mean: 13.0
  Percent = [(No. landings/No. present)] × 100: 10.9%
  No. landings: 14 (2×) and 11
Culex spp.; 20% concentration
  observed repellent / residual activity (words): strong immediate and residual activity for up to 6 hours, weak activity at 12 hours and none thereafter; also recorded: treatment, but no residual activity was observed at 12 or 24 hours post-treatment
